In ChEMBL document CHEMBL5230113, “2-substituted benzothiazoles as antiproliferative agents: Novel insights on structure-activity relationships” (Eur J Med Chem, 2020):
pEC50, pIC50: −log10 of the molar value. ≈ marks a conversion by molar mass, not a printed value.

Assays:
HCC4017 = test: Cytotoxicity against human HCC4017 cells assessed as cell growth inhibition; format: functional, cell-based
Histone deacetylase 1 = Histone deacetylase 1 (Homo sapiens, UniProt Q13547); test: Inhibition of HDAC1 (unknown origin)
Histone deacetylase 1, sequence (Q13547 whole entry): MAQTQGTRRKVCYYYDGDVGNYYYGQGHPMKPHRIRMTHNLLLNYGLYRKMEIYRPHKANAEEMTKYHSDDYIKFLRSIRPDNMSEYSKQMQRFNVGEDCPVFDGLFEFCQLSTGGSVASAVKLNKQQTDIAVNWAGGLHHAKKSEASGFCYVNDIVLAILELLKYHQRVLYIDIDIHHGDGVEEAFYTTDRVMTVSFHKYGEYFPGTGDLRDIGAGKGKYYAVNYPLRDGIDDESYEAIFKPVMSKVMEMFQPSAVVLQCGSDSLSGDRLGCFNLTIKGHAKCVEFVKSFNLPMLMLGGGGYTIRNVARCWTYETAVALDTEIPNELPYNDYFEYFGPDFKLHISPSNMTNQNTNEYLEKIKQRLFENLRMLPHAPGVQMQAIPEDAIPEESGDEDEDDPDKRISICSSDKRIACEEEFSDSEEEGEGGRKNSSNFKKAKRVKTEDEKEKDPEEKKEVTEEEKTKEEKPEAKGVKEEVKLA

[1] = Cytotoxicity against human HCC4018 cells assessed as cell growth inhibition; format: functional, cell-based
HepG2 = test: Cytotoxicity against human HepG2 cells assessed as inhibition of cell growth; format: functional, cell-based; conditions: for IC50: hepg2
C6 = test: Cytotoxicity against rat C6 cells assessed as inhibition of cell growth; format: functional, cell-based
HeLa = test: Antiproliferative activity against human HeLa cells assessed as cell growth inhibition; format: functional, cell-based
MDA-MB-231 [2] = test: Cytotoxicity against human MDA-MB-231 cells assessed as cell growth inhibition; format: functional, cell-based
A549 = test: Antiproliferative activity against human A549 cells assessed as cell growth inhibition; format: functional, cell-based
MCF7 = test: Cytotoxicity against human MCF7 cells assessed as inhibition of cell growth; format: functional, cell-based
DU-145 = test: Cytotoxicity against human DU-145 cells assessed as cell growth inhibition; format: functional
DB = test: Antiproliferative activity against human DB cells assessed as cell growth inhibition; format: functional, cell-based
MV4-11 = test: Antiproliferative activity against human MV4-11 cells assessed as cell growth inhibition; format: functional, cell-based
[3] = target: Prostaglandin G/H synthase 1 (Homo sapiens, UniProt P23219); test: Inhibition of COX-1 (unknown origin)
Prostaglandin G/H synthase 1, sequence (P23219 whole entry): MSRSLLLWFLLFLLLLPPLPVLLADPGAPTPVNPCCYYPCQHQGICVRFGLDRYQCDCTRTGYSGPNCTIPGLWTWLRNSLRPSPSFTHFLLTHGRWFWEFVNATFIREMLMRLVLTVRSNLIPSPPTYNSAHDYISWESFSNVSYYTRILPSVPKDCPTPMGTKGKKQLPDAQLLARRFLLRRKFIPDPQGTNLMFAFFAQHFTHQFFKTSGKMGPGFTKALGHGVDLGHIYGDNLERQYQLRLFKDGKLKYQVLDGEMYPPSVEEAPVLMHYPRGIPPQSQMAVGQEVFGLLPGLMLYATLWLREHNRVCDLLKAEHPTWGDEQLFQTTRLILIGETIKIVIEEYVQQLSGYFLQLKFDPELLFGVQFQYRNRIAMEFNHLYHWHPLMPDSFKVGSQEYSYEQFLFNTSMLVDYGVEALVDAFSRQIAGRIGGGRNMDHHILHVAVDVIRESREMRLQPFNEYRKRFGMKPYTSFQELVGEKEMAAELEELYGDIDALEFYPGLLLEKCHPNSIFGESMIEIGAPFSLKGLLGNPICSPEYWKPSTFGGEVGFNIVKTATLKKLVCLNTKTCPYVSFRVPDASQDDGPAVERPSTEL

[4] = target: T1, Prostaglandin G/H synthase 2 (Homo sapiens, UniProt P35354); test: Inhibition of COX-2 (unknown origin)
T1 sequence (P35354 whole entry): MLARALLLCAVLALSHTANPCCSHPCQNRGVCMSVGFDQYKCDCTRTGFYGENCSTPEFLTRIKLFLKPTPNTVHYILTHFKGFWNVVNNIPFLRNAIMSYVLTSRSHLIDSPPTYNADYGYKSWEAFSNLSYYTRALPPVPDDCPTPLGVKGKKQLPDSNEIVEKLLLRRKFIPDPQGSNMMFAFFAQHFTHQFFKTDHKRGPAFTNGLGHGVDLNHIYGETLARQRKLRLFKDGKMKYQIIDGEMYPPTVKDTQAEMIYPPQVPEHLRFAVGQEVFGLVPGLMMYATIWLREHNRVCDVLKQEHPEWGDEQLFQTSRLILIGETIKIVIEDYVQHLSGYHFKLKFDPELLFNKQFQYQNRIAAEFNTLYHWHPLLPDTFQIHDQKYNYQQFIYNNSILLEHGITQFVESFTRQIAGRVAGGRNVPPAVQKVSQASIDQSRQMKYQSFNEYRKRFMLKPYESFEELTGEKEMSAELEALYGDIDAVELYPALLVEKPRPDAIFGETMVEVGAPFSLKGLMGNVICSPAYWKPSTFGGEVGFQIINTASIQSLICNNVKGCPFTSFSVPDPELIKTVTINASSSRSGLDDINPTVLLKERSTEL

SiHa = test: Antiproliferative activity against human SiHa cells assessed as cell growth inhibition; format: functional, cell-based
NCI-H226 = test: Antiproliferative activity against human NCI-H226 cells assessed as inhibition of cell growth; format: functional, cell-based
SK-N-SH = test: Antiproliferative activity against human SK-N-SH cells assessed as inhibition of cell growth; format: functional, cell-based
MKN-45 = test: Antiproliferative activity against human MKN-45 cells assessed as inhibition of cell growth; format: functional, cell-based
[5] = Activation of procaspase-3 (unknown origin); design: species or system Homo sapiens
MDA-MB-231 [6] = test: Potency index, ratio of PAC-1 IC50 to test compound IC50 for antiproliferative activity against human MDA-MB-231 cells assessed as inhibition of cell growth; format: functional; conditions: pooled result: one value given for 5 cell lines, strains, targets or settings
HT-29 = test: Antiproliferative activity against human HT-29 cells assessed as inhibition of cell growth; format: functional, cell-based

O=C(NO)c1ccc(S(=O)(=O)N2CCN(c3nc4ccccc4s3)CC2)cc1
pIC50 (HCC4017): 5.79 | pIC50 (Histone deacetylase 1): 5.32 | pIC50 [1]: 5.40

Cc1ccc(Nn2c(SCC(=O)Nc3nc4ccc(F)cc4s3)nc(C)c2C)cc1
IC50 (HepG2): 31.7 µg/mL | IC50 (C6): 16.3 µg/mL (≈ 37 µM)

Cc1ccc(Nn2c(SCC(=O)Nc3nc4ccc(C)cc4s3)nc(C)c2C)cc1
IC50 (HepG2): 26.3 µg/mL

O=C(CN1CCN(c2ccccc2F)CC1)Nc1ccc(-c2nc3ccccc3s2)cc1
GI50 (HeLa): 200 nM | GI50 (MDA-MB-231 [2]): 200 nM | GI50 (A549): 200 nM

Cc1ccc2nc(N/N=C/c3cccnc3Nc3ccccc3)sc2c1
pIC50 (MCF7): 5.77

Cc1ccc2nc(NC(=O)CSc3nc(C)c(C)n3Nc3ccc([N+](=O)[O-])cc3)sc2c1
IC50 (C6): 15.7 µg/mL (≈ 33.4 µM)

O=C(CNS(=O)(=O)c1cc(Cl)ccc1Cl)N1CCN(c2nc3ccccc3s2)CC1
CC50 (HepG2; Homo sapiens, HepG2): 8000 nM | CC50 (DU-145): 9000 nM

O=C(CN1CCN(c2ccccc2)CC1)Nc1ccc(-c2nc3ccccc3s2)cc1
GI50 (HeLa): 200 nM | GI50 (MDA-MB-231 [2]): 200 nM | GI50 (A549): 200 nM

O=C(Nc1cccc(-c2nc3ccccc3s2)c1)c1cccnc1
pIC50 (MCF7): 4.82 | pIC50 (HeLa): 4.82 | pIC50 (HepG2; Homo sapiens, HepG2, read-out: IC50): 4.82 | pIC50 (DB): 4.82 | pIC50 (A549): 5.27 | pIC50 (MV4-11): 5.12

CC(=O)N1N=C(C)/C(=N\Nc2cccc(-c3nc4ccccc4s3)c2)C1=O
pIC50 [3]: 5.02 | pIC50 (MCF7): 4.91 | pIC50 [4]: 7.00 | pIC50 (A549): 4.91

COc1cccc(-n2cc(CNc3ccc(-c4nc5ccccc5s4)cc3)nn2)c1
GI50 (HeLa): 200 nM | GI50 (MDA-MB-231 [2]): 200 nM | GI50 (A549): 200 nM

Clc1cccc(-n2cc(CNc3ccc(-c4nc5ccccc5s4)cc3)nn2)c1
GI50 (HeLa): 200 nM | GI50 (MDA-MB-231 [2]): 200 nM | GI50 (A549): 200 nM

COc1ccc(Cl)cc1C(=O)Nc1ccc(-c2nc3ccccc3s2)cc1
pIC50 (SiHa): 5.21

Cc1ccc(Nn2c(SCC(=O)Nc3nc4ccc(Cl)cc4s3)nc(C)c2C)cc1
IC50 (HepG2): 29.3 µg/mL

Cc1nc(SCC(=O)Nc2nc3ccc(F)cc3s2)n(Nc2ccc([N+](=O)[O-])cc2)c1C
IC50 (HepG2): > 500 µg/mL

CC1=NN(c2ccccc2)C(=O)/C1=N/Nc1cccc(-c2nc3ccccc3s2)c1
pIC50 [3]: 5.02 | pIC50 (MCF7): 4.91 | pIC50 [4]: 7.00 | pIC50 (A549): 4.91

Cc1nc(SCC(=O)Nc2nc3ccccc3s2)n(Nc2ccc([N+](=O)[O-])cc2)c1C
IC50 (HepG2): 28.7 µg/mL | IC50 (C6): 24.3 µg/mL (≈ 53.5 µM)

CN(C)Cc1ccc2nc(NC(=O)N/N=C/c3ccc(OCc4ccc(C(F)(F)F)cc4)cc3O)sc2c1
pIC50 (NCI-H226): 6.62 | pIC50 (SK-N-SH): 6.62 | pIC50 (MKN-45): 6.62 | pEC50 [5]: 6.51 | pIC50 (MDA-MB-231 [2]): 6.62 | Ratio IC50 (MDA-MB-231 [6]): 4.24 | pIC50 (HT-29): 6.62

Cc1ccc(N2CCN(CC(=O)Nc3ccc(-c4nc5ccccc5s4)cc3)CC2)cc1
GI50 (HeLa): 200 nM | GI50 (MDA-MB-231 [2]): 200 nM | GI50 (A549): 200 nM

O=C(CNS(=O)(=O)c1ccc(Cl)cc1)N1CCN(c2nc3ccccc3s2)CC1
CC50 (DU-145): 8000 nM

Nc1ccc(-c2nc3ccccc3s2)cc1
pIC50 (MCF7): 9.52

C=CCc1cccc(/C=N/NC(=O)CN2CCN(Cc3ccccc3)CC2)c1O [PAC-1]
pEC50 [5]: 6.39
